Data as given in publication PMC9029893 (International Journal of Molecular Sciences, 2022).

What was measured:
HUVEC cells [1] = assay: HUVEC migration, wound-healing assay (JuLI Stage); type: cell-based, human
Method: The effects of compounds 1–5 on HUVEC migration were determined using the JuLI™ Stage system (NanoEntek, Seoul, Korea): a real-time cell history recorder allowing for live cell imaging and analysis. The procedure for the migration experiments has been published elsewhere in more detail. Concisely, HUVECs were seeded at a density of 10,000 cells per well on 96-well plates and incubated at standard conditions for 24 h. Following this, a wound was made with a scratcher (NanoEntek, Seoul, Korea). The cells were then rinsed with 100 μL of fresh EGM2 medium, and treated with biguanides 1–5 at the concentrations of 0.3 and 1.0 mM. The cells were incubated and monitored continuously every 10 min for 36 h at 37 °C, 5% CO2. Analysis of obtained images of cell migration, and measurements of the width of the scratch area were performed using dedicated software (NanoEntek, Seoul, Korea). The results were presented as mean ± SD, n = 4–8. The CV for the method was estimated as 14.2–24.4%, depending on the time point (n = 8).

HUVEC cells [2] = assay: Glucose utilization assay (2-NBDG uptake); type: cell-based, human; conditions: 24 h, then insulin and 2-NBDG
Method: HUVEC were seeded at a density of 20,000 cells per well in 48-well plates, and were cultured in standard conditions for 24 h (medium EGM-2; volume 0.2 mL). Following this, compounds 1–8 were added at concentrations of 0.1 and 0.3 mM, and the HUVECs were incubated for another 24 h. Cells treated with ᴅ-glucose (final concentration in a sample 0.1 mM) were used as positive controls. On the following day, the cells were rinsed with PBS (Biomed Lublin, Lublin, Poland) and cultured for two hours in glucose-free DMEM medium supplemented with 1% BSA (bovine serum albumin, Sigma, St. Louis, MO, USA). Then, the cells were co-treated with insulin (final concentration 0.0001 mM) for 30 min. Afterwards, the medium was discarded and the cells were treated with 2-NBDG (final concentration 0.05 mM) for 30 min, followed by removal of the solutions of each well. The cells were washed twice with 100 µL PBS, and lysed using 1% Triton X-100 solution in PBS. The fluorescence was recorded using a microplate reader (Biotek, Instruments, Winooski, VT, USA) at 480/530 nm.
The concentration of intracellular 2-NBDG was calculated using a calibration curve obtained using 2-NBDG at concentrations ranging from 0.0001 to 0.025 mM in lysis buffer. The results are presented as mean ± SD, n = 4–6. The coefficient of variation for the assay was calculated (CV = 2.2%, n = 8).

[3] = tested on: tissue plasminogen activator (t-PA) release from HUVEC; assay: t-PA release from HUVEC (ELISA); type: cell-based, human; conditions: 24 h, HUVEC supernatants
Method: The influence on tissue plasminogen activator release from HUVECs was assessed using an ELISA kit (Abcam, Cambridge, UK). HUVECs seeded at a density of 10,000 per well on 96-well plates were co-incubated with compounds 1–5 at the concentrations of 0.3 and 1.0 mM for an additional 24 h (37 °C, 5% CO2). The cell supernatants were discarded into Eppendorf tubes and preserved at −20° C until analysis. Before the tests, the samples were thawed at room temperature for 15 min, and diluted 2.5-fold with diluent in Elisa kit. The measurements of t-PA concentrations in cell supernatants were conducted according to the manufacturer’s protocol using 3,3’,5,5’-tetramethylbenzidine (TMB) as a chromogenic substrate. The concentration of t-PA in HUVEC supernatants was determined using a calibration curve (R^2 = 0.9936). The results are presented as mean ± SD, n = 6. The CV for the applied method was 7.21%.

[4] = tested on: coagulation in human citrate plasma; assay: Coagulation assay (endogenous thrombin generation); type: biochemical
Method: These reagents induce a feedback reaction leading to the generation of endogenous thrombin, and coagulation. The other experimental conditions were the same as for the CL-test (Section 4.12).
The obtained curves were analyzed using dedicated software that estimates the following parameters: TGt—thrombin generation time (s), Fmax—maximum clotting (%T), Tf—plasma clotting time (s), Fvo—initial plasma clotting velocity (%T/min), Sf—area under the clot formation curve (%Txmin), Tc—clot stabilization time (s), S—area under the curve of coagulation (%Txmin).

CCCCCCCCS(=O)(=O)NC(N)=NC(=N)N(C)C [Compound 2]
wound width (HUVEC cells [1]; 0.3 mM, 6 hours): 493.8 ± 133.1 µm | wound width (HUVEC cells [1]; 0.3 mM, 12 hours): 442.4 ± 142.9 µm | wound width (HUVEC cells [1]; 0.3 mM, 18 hours): 351.4 ± 82.6 µm | wound width (HUVEC cells [1]; 0.3 mM, 24 hours): 328.6 ± 56.9 µm | wound width (HUVEC cells [1]; 0.3 mM, Start): 637.4 ± 116.3 µm | wound width (HUVEC cells [1]; 1.0 mM, 6 hours): 590.8 ± 40.2 µm | wound width (HUVEC cells [1]; 1.0 mM, 12 hours): 541.5 ± 99.2 µm | wound width (HUVEC cells [1]; 1.0 mM, 18 hours): 453.1 ± 106.1 µm | wound width (HUVEC cells [1]; 1.0 mM, 24 hours): 357.2 ± 68.1 µm | wound width (HUVEC cells [1]; 1.0 mM, Start): 712.4 ± 56.5 µm | Glucose uptake (intracellular 2-NBDG) (HUVEC cells [2]; 0.1 mM): 0.0139 ± 0.0003 mM | Glucose uptake (intracellular 2-NBDG) (HUVEC cells [2]; 0.3 mM): 0.0146 ± 0.001 mM | Released t-PA ([3]; 0.3 mM): 1633.9 ± 263.2 pg/mL | Released t-PA ([3]; 1.0 mM): 990.0 ± 158.5 pg/mL | Fmax—maximum clotting ([4]; 0.06 mM): 85.20 ± 6.52 %T | Fvo—initial plasma clotting velocity ([4]; 0.06 mM): 124.35 ± 37.66 %T/min | Sc—area under the curve of a stable clot formation ([4]; 0.06 mM): 562.66 ± 156.02 %T x min | Sf—area under the clot formation curve ([4]; 0.06 mM): 91.44 ± 30.65 %T x min | S—overall potential of clot formation ([4]; 0.06 mM): 1638.19 ± 135.59 %T x min | TGt—thrombin generation time ([4]; 0.06 mM): 151.33 ± 26.37 s | Tf—plasma clotting time ([4]; 0.06 mM): 98.28 ± 33.46 s | Fmax—maximum clotting ([4]; 0.3 mM): 85.12 ± 5.67 %T | Fvo—initial plasma clotting velocity ([4]; 0.3 mM): 142.17 ± 46.90 %T/min | Sc—area under the curve of a stable clot formation ([4]; 0.3 mM): 602.85 ± 84.63 %T x min | Sf—area under the clot formation curve ([4]; 0.3 mM): 79.63 ± 20.32 %T x min | S—overall potential of clot formation ([4]; 0.3 mM): 1641.98 ± 118.29 %T x min | TGt—thrombin generation time ([4]; 0.3 mM): 135.67 ± 25.90 s | Tf—plasma clotting time ([4]; 0.3 mM): 85.08 ± 25.10 s | Fmax—maximum clotting ([4]; 0.6 mM): 83.60 ± 6.72 %T | Fvo—initial plasma clotting velocity ([4]; 0.6 mM): 140.83 ± 37.45 %T/min | Sc—area under the curve of a stable clot formation ([4]; 0.6 mM): 583.07 ± 90.13 %T x min | Sf—area under the clot formation curve ([4]; 0.6 mM): 88.00 ± 18.58 %T x min | S—overall potential of clot formation ([4]; 0.6 mM): 1611.84 ± 135.58 %T x min | TGt—thrombin generation time ([4]; 0.6 mM): 153.33 ± 21.05 s | Tf—plasma clotting time ([4]; 0.6 mM): 91.58 ± 19.43 s | Fmax—maximum clotting ([4]; 1.5 mM): 76.35 ± 9.75 %T | Fvo—initial plasma clotting velocity ([4]; 1.5 mM): 120.32 ± 48.40 %T/min | Sc—area under the curve of a stable clot formation ([4]; 1.5 mM): 511.33 ± 178.11 %T x min | Sf—area under the clot formation curve ([4]; 1.5 mM): 87.66 ± 44.66 %T x min | S—overall potential of clot formation ([4]; 1.5 mM): 1467.86 ± 181.79 %T x min | TGt—thrombin generation time ([4]; 1.5 mM): 170.50 ± 31.73 s | Tf—plasma clotting time ([4]; 1.5 mM): 101.45 ± 38.76 s

CN(C)C(=N)N=C(N)NS(=O)(=O)C1CCCCC1 [Compound 3]
wound width (HUVEC cells [1]; 0.3 mM, 6 hours): 606.7 ± 149.4 µm | wound width (HUVEC cells [1]; 0.3 mM, 12 hours): 486.0 ± 131.2 µm | wound width (HUVEC cells [1]; 0.3 mM, 18 hours): 441.9 ± 99.5 µm | wound width (HUVEC cells [1]; 0.3 mM, 24 hours): 395.9 ± 104.7 µm | wound width (HUVEC cells [1]; 0.3 mM, Start): 675.1 ± 94.6 µm | wound width (HUVEC cells [1]; 1.0 mM, 6 hours): 494.6 ± 106.9 µm | wound width (HUVEC cells [1]; 1.0 mM, 12 hours): 414.1 ± 103.5 µm | wound width (HUVEC cells [1]; 1.0 mM, 18 hours): 385.2 ± 94.5 µm | wound width (HUVEC cells [1]; 1.0 mM, 24 hours): 331.3 ± 62.5 µm | wound width (HUVEC cells [1]; 1.0 mM, Start): 609.3 ± 73.0 µm | Glucose uptake (intracellular 2-NBDG) (HUVEC cells [2]; 0.1 mM): 0.0137 ± 0.0003 mM | Glucose uptake (intracellular 2-NBDG) (HUVEC cells [2]; 0.3 mM): 0.0144 ± 0.0005 mM | Released t-PA ([3]; 0.3 mM): 1550.9 ± 135.2 pg/mL | Released t-PA ([3]; 1.0 mM): 1267.1 ± 350.6 pg/mL | Fmax—maximum clotting ([4]; 0.06 mM): 84.78 ± 5.57 %T | Fvo—initial plasma clotting velocity ([4]; 0.06 mM): 108.56 ± 28.63 %T/min | Sc—area under the curve of a stable clot formation ([4]; 0.06 mM): 586.27 ± 95.97 %T x min | Sf—area under the clot formation curve ([4]; 0.06 mM): 102.35 ± 29.66 %T x min | S—overall potential of clot formation ([4]; 0.06 mM): 1628.36 ± 118.58 %T x min | TGt—thrombin generation time ([4]; 0.06 mM): 155.00 ± 20.58 s | Tf—plasma clotting time ([4]; 0.06 mM): 108.30 ± 35.15 s | Fmax—maximum clotting ([4]; 0.3 mM): 82.66 ± 7.51 %T | Fvo—initial plasma clotting velocity ([4]; 0.3 mM): 113.42 ± 23.98 %T/min | Sc—area under the curve of a stable clot formation ([4]; 0.3 mM): 766.41 ± 394.94 %T x min | Sf—area under the clot formation curve ([4]; 0.3 mM): 100.51 ± 28.00 %T x min | S—overall potential of clot formation ([4]; 0.3 mM): 1580.91 ± 150.03 %T x min | TGt—thrombin generation time ([4]; 0.3 mM): 139.60 ± 7.44 s | Tf—plasma clotting time ([4]; 0.3 mM): 108.58 ± 33.64 s | Fmax—maximum clotting ([4]; 0.6 mM): 82.44 ± 5.61 %T | Fvo—initial plasma clotting velocity ([4]; 0.6 mM): 127.78 ± 40.82 %T/min | Sc—area under the curve of a stable clot formation ([4]; 0.6 mM): 560.45 ± 102.47 %T x min | Sf—area under the clot formation curve ([4]; 0.6 mM): 107.67 ± 29.19 %T x min | S—overall potential of clot formation ([4]; 0.6 mM): 1580.02 ± 119.57 %T x min | TGt—thrombin generation time ([4]; 0.6 mM): 158.40 ± 13.03 s | Tf—plasma clotting time ([4]; 0.6 mM): 112.94 ± 35.34 s | Fmax—maximum clotting ([4]; 1.5 mM): 77.50 ± 8.20 %T | Fvo—initial plasma clotting velocity ([4]; 1.5 mM): 135.98 ± 31.06 %T/min | Sc—area under the curve of a stable clot formation ([4]; 1.5 mM): 537.91 ± 99.63 %T x min | Sf—area under the clot formation curve ([4]; 1.5 mM): 83.28 ± 17.34 %T x min | S—overall potential of clot formation ([4]; 1.5 mM): 1494.31 ± 163.29 %T x min | TGt—thrombin generation time ([4]; 1.5 mM): 165.40 ± 28.25 s | Tf—plasma clotting time ([4]; 1.5 mM): 93.42 ± 26.49 s
